Patent publication US9346815B2, “5-chloro-2-difluoromethoxyphenyl pyrazolopyrimidine compounds, compositions and methods of use thereof” (Genentech, Inc., priority 2014, dated 2016)

Key:
[1] = target: isolated recombinant JAK1 kinase domain (Homo sapiens (Human), UniProt P23458); assay: JAK1 enzyme assay (Caliper LabChip, peptide phosphorylation); type: biochemical; details: isolated recombinant JAK1 kinase domain, 25 μM ATP
[2] = test system: JAK1-dependent STAT6 phosphorylation downstream of IL-13 stimulation in BEAS-2B human bronchial epithelial cells; assay: JAK1 pathway assay in BEAS-2B cells (IL-13-pSTAT6, MSD); type: cell-based; details: read-out: IL13-pSTAT6 EC50 (uM)_BEAS-2B
Summary of the method: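 BEAS-2B: complete growth medium, compound 1 hr at 37° C. TF-1: GM-CSF-starved overnight, serum-free OptiMEM, compound 30 min.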

[3] = target: isolated recombinant JAK2 kinase domain (Homo sapiens (Human), UniProt O60674); assay: JAK2 enzyme assay (Caliper LabChip, peptide phosphorylation); type: biochemical; details: 25 μM ATP
Chain of isolated recombinant JAK2 kinase domain (O60674 849-1124): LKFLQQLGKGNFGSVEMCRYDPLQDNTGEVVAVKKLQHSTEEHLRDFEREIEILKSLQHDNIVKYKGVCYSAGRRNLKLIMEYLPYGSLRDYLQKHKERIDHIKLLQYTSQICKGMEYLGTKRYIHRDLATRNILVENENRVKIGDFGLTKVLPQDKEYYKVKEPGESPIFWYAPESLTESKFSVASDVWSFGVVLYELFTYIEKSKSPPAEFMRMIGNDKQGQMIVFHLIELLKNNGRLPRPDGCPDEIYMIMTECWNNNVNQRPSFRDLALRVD

Chain of isolated recombinant JAK1 kinase domain (P23458 875-1153): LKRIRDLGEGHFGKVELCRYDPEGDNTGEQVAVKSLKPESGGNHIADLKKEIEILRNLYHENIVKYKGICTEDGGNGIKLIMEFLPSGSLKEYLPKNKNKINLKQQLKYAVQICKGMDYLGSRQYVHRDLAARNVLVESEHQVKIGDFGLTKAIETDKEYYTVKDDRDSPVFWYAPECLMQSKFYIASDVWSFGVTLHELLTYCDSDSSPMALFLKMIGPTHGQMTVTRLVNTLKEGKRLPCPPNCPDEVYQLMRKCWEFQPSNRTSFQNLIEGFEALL

| Compound | Ki [1] [nM] | Ki [3] [nM] | EC50 [2] [µM] |
| --- | --- | --- | --- |
| O=C(Nc1cn([C@@H]2CCNC[C@H]2O)nc1-c1cc(Cl)ccc1OC(F)F)c1cnn2cccnc12 [Example 358, N-[3-[5-chloro-2-(difluoromethoxy)phenyl]-1-[(3R,4R)-3-hydroxypiperidin-4-yl]-1H-pyrazol-4-yl]pyrazolo[1,5-a]pyrimidine-3-carboxamide] | 0.93 | 0.66 | 0.0133 |
| CC(C)(C)OC(=O)N1CC[C@H](O)[C@@H](n2cc(NC(=O)c3cnn4cccnc34)c(-c3cc(Cl)ccc3OC(F)F)n2)C1 (single isomer, unassigned) [Example 357] | 1.22 | 1.06 | 0.0216 |
| CN(C)C(=O)[C@@H]1CCCN1C1CCN(C(=O)Cn2cc(NC(=O)c3cnn4cccnc34)c(-c3cc(Cl)ccc3OC(F)F)n2)CC1 [Example 424, N-(3-(5-chloro-2-(difluoromethoxy)phenyl)-1-(2-(4-((S)-2-(dimethylcarbamoyl)pyrrolidin-1-yl)piperidin-1-yl)-2-oxoethyl)-1H-pyrazol-4-yl)pyrazolo[1,5-a]pyrimidine-3-carboxamide] | 1.12 | 3.44 | 0.0987 |
| O=C(Nc1cn([C@H]2CCNC[C@@H]2O)nc1-c1cc(Cl)ccc1OC(F)F)c1cnn2cccnc12 [Example 359, N-[3-[5-chloro-2-(difluoromethoxy)phenyl]-1-[(3S,4S)-3-hydroxypiperidin-4-yl]-1H-pyrazol-4-yl]pyrazolo[1,5-a]pyrimidine-3-carboxamide] | 3.85 | 2.7 | 0.0309 |
| CC(C)(C)OC(=O)N1CC[C@@H](O)[C@H](n2cc(NC(=O)c3cnn4cccnc34)c(-c3cc(Cl)ccc3OC(F)F)n2)C1 (single isomer, unassigned) [Example 356] | 2.64 | 2.37 | 0.0396 |

Stronger by Ki [1], values ahead:

| Ki [1] [nM] | Ki [3] [nM] | Compound | EC50 [2] [µM] |
| --- | --- | --- | --- |
| 0.7 | 1.24 | CC(C)N1CCN(C(=O)Cn2cc(NC(=O)c3cnn4cccnc34)c(-c3cc(Cl)ccc3OC(F)F)n2)CC1 [Example 373, N-[3-[5-chloro-2-(difluoromethoxy)phenyl]-1-[2-oxo-2-[4-(propan-2-yl)piperazin-1-yl]ethyl]-1H-pyrazol-4-yl]pyrazolo[1,5-a]pyrimidine-3-carboxamide] | 0.0342 |
| 0.58 | 1.73 | CN(C)C(=O)CN(C)C1CCN(C(=O)Cn2cc(NC(=O)c3cnn4cccnc34)c(-c3cc(Cl)ccc3OC(F)F)n2)CC1 [Example 400, N-(3-(5-chloro-2-(difluoromethoxy)phenyl)-1-(2-(4-((2-(dimethylamino)-2-oxoethyl)(methyl)amino)piperidin-1-yl)-2-oxoethyl)-1H-pyrazol-4-yl)pyrazolo[1,5-a]pyrimidine-3-carboxamide] | 0.0309 |
| 0.49 | 1.05 | O=C(Nc1cn(CC(=O)N2CCC(C(=O)OCCN3CCOCC3)CC2)nc1-c1cc(Cl)ccc1OC(F)F)c1cnn2cccnc12 [Example 336, 2-(morpholin-4-yl)ethyl 1-(2-[3-[5-chloro-2-(difluoromethoxy)phenyl]-4-[pyrazolo[1,5-a]pyrimidine-3-amido]-1H-pyrazol-1-yl]acetyl)piperidine-4-carboxylate] | 0.0145 |
| 0.48 | 1.04 | CC(c1ccccc1)N1CCN(C(=O)Cn2cc(NC(=O)c3cnn4cccnc34)c(-c3cc(Cl)ccc3OC(F)F)n2)CC1 (stereo not drawn) [Example 316, N-[3-[5-chloro-2-(difluoromethoxy)phenyl]-1-[2-oxo-2-[4-(1-phenylethyl)piperazin-1-yl]ethyl]-1H-pyrazol-4-yl]pyrazolo[1,5-a]pyrimidine-3-carboxamide] | 0.142 |
| 0.39 | 0.66 | CNC(=O)CN1CCN(C(=O)Cn2cc(NC(=O)c3cnn4cccnc34)c(-c3cc(Cl)ccc3OC(F)F)n2)CC1 [Example 383, N-[3-[5-chloro-2-(difluoromethoxy)phenyl]-1-(2-[4-[(methylcarbamoyl)methyl]piperazin-1-yl]-2-oxoethyl)-1H-pyrazol-4-yl]pyrazolo[1,5-a]pyrimidine-3-carboxamide] | 0.277 |
